Assay [1] concerns blood neutrophils, monocytes and inflammatory cytokines. In words: Hematology and plasma cytokine analyses in naive and candidemic mice. The assay is classed as in vivo. The text has this:
EDTA-anticoagulated blood was collected aseptically by terminal cardiac puncture and analyzed for complete blood cell count using a HemaVet 950 FS hematology analyzer (Drew Scientific). Plasma cytokine levels plasma were quantified using a mouse-specific MILLIPLEX MAP kit (Millipore) as described.

Assay [2] deals with C. albicans SC5314, 43001 and 53264. In words: MIC/MFC, summary statements over the three strains. The assay is classed as cell-based. The protocol: C. albicans strains were tested against RTD-1, fluconazole, and caspofungin in microdilution broth in accordance with Clinical and Laboratory Standards Institute (CLSI) document M27-A2 with the exception that 25 mM MOPS was used in place of 165 mM MOPS, as described previously. Overnight cultures were harvested by centrifugation, washed twice with Ca^2+ and Mg^2+-free PBS, pH 7.2, and suspended in test medium (RPMI 1640 medium, 25 mM MOPS, 2 mM L-glutamine) at 10^4 CFU/ml[62]. Incubations were conducted in flat bottom, 96-well microtiter plates (Greiner bio-one, Monroe, NC) containing 0.2 ml test medium per well. Duplicate 0.1 ml aliquots of serial two-fold dilutions of peptides and antifungal drugs were dispensed into wells, each of which was inoculated with 0.1 ml of fungal cell suspension containing 1 × 10^3 CFU. Plates were incubated at 30 °C for 48 hours after which A600 was determined using a SpectraMax M5e plate reader.
Minimal fungicidal concentration (MFC) was determined by plating, on YPD plates, 10 µl from wells in MIC assay without cell growth and the first well with measurable turbidity as described[63]–[66] and corresponding aliquots from the no-agent controls. Under MIC incubation conditions, no filamentation occurred allowing for accurate CFU counts after plating on YPD plates which were incubated for 24 h at 30 °C. […]

[3] abbreviates: candidemic mice, single 5 mg/kg i.p., 7 days p.i.
[4] abbreviates: long term survivors, day 30 p.i.

Structures are written as SMILES. Bridge positions count the residues as written; N and C are the ends. Peptide text beside a SMILES is read from it.

Take `CC[C@H](C)[C@@H]1NC(=O)[C@@H]2CSSC[C@H](NC(=O)[C@H](CCCNC(=N)N)NC(=O)[C@@H]3CSSC[C@H](NC1=O)C(=O)N[C@@H]([C@@H](C)O)C(=O)N[C@@H](CCCNC(=N)N)C(=O)NCC(=O)N[C@@H](Cc1ccccc1)C(=O)N3)C(=O)N[C@@H](CC(C)C)C(=O)N[C@H]1CSSC[C@H](NC(=O)[C@H](C(C)C)NC(=O)CNC(=O)[C@H](CCCNC(=N)N)NC(=O)[C@H](CCCNC(=N)N)NC1=O)C(=O)N[C@@H](CCCNC(=N)N)C(=O)N2` [RTD-1, Rhesus theta (θ) defensin-1] (cyclo(GFCRCLCRRGVCRCICTR); disulfide 3-16, 5-14, 7-12 (inferred); ring closure inferred): the blood neutrophil counts entry in assay [1] (candidemic mice (SC5314), single 5 mg/kg i.p. at T = 0, 4 h p.i.) is “significantly (P = 0.008) increased blood neutrophil counts”. Also, the blood neutrophil counts entry in assay [1] (candidemic mice, single 5 mg/kg i.p. at T = 0, day 7, vs saline) is “significantly (P = 0.0002) lower”. Further, in assay [1] (setting [3]), the “IL-10 or IL-6 levels” value is reported as “no effect”; the “blood proinflammatory cytokines TNF, IL-1β and IL-17” value is “significant reduction”. In addition, in assay [1] (setting [4]), the circulating granulocytes result is “homeostatic normalization of circulating granulocytes”; the “levels of TNF, IL-10 and IL-6” value was “normalized to those of uninfected controls”. Also, the blood cytokine levels entry in assay [1] (naive mice) is listed as “did not alter the levels of these cytokines”. Besides, the “increase of blood neutrophils” value in assay [1] (naive mice, single 5 mg/kg i.p., 4 h, P = 0.32) is 2.3 fold. Further, the “MFCs as multiple of the MICs” value in assay [2] (RPMI) is reported as 1–2 × the MICs. Also, the “antifungal activity against blastospores in 50% mouse serum” value in assay [2] (peptide concentrations up to 100 µg/ml) was “inactive”.

These data come from paper PMC6858451, “Rhesus Theta Defensin 1 Promotes Long Term Survival in Systemic Candidiasis by Host Directed Mechanisms” (Scientific Reports, 2019).
